Source: patent US20240108614A1, “Methods of Treating Diabetic Cardiomyopathy by Inhibiting GLUT1” (University of Cincinnati, priority 2022, published 2024)

What was measured:
Type in all cases: in vivo
[1] = tested on: type 2 diabetic mice (HFD); test: Type 2 diabetes mouse model (high-fat diet 32 weeks, then 8 weeks of treatment); conditions: HFD type 2 diabetes mice
Source text: Similar results were shown in mouse models of type 2 diabetes, wherein mice were fed a high-fat diet (HFD) for 32 weeks prior to initiating 8 weeks of treatment with SFT-31.

type 1 diabetic mice [2] = test: Type 1 diabetes mouse model, treatment over twelve weeks (prevention), 2D echocardiography
Procedure: To explore whether GLUT1 inhibition holds therapeutic potential against diabetic cardiomyopathy, diabetic mice were treated with a GLUT1 inhibitor (STF-31). Specifically, type 1 diabetes was induced in WT mice and mice were monitored for twelve weeks.
(§1) To evaluate the impact of GLUT1 and myocardial glucose content changes on cardiac function and structure, 2D echocardiography was performed to measure EF, FS, end-diastolic and end-systolic volumes (EDV, ESV), stroke volume (SV), and cardiac output (CO) using M-mode short axis images, automatic tracing, myocardial strain and strain rate with speckle tracking. From the pulsed wave Doppler spectral waveforms, the peak early and late diastolic transmitral velocities (E, A waves) were measured to obtain the E/A ratio.
One group of mice was treated with STF-31 for the entire twelve-weeks period.
Prior to this disclosure, treatment of diabetic patients with SGLT2 inhibitors (dapa or empagliflozin), has shown the most robust cardioprotective effects. Treatment of diabetic mice with dapa corrected hyperglycemia (FIG. 4A) and prevented systolic (FIG. 4B) and diastolic heart failure (FIG. 4C) in both early and late type 1 diabetes.

type 1 diabetic mice [3] = test: Type 1 diabetes mouse model, treatment started after cardiac dysfunction was confirmed (6 weeks) until the twelfth week
Procedure: as §1
In another mouse cohort, treatment with either STF-31 or dapa started after cardiac dysfunction was confirmed (6 weeks of type 1 diabetes) and continued until the twelfth week. This treatment corrected both systolic (FIG. 4D) and diastolic (FIG. 4E) dysfunction. Importantly, treatment with either STF-31 or dapa prevented upregulation of KLF5. Thus, inhibition of GLUT1 appears as a novel therapeutic target for diabetic cardiomyopathy that prevents activation of the cardiotoxic FOXO1-KLF5 axis.

[4] = treatment from 6 weeks of type 1 diabetes until twelfth week, after confirmed cardiac dysfunction

Question: For `CC(C)(C)c1ccc(S(=O)(=O)NCc2ccc(C(=O)Nc3cccnc3)cc2)cc1` [STF-31], which KLF5 upregulation [1] is on record?
Answer: Its KLF5 upregulation is “prevented”.

Question: What about the diastolic dysfunction [1] of the same molecule?
Answer: Its diastolic dysfunction is “did not develop”.

Question: And the hyperglycemia [1]?
Answer: Its hyperglycemia is “persistent hyperglycemia”.

Question: What about the systolic dysfunction [1] of the same molecule?
Answer: The systolic dysfunction was “did not develop”.

Question: What about the “diastolic dysfunction (mitral valve E/A ratio)” value (type 1 diabetic mice [2]) of the same molecule?
Answer: Its value is “did not develop”.

Question: And the “plasma glucose levels (hyperglycemia)” value (type 1 diabetic mice [2])?
Answer: Its value is “persistent hyperglycemia”.

Question: And the systolic dysfunction (type 1 diabetic mice [2])?
Answer: Its systolic dysfunction is “did not develop”.

Question: And the diastolic dysfunction (type 1 diabetic mice [3]; [4])?
Answer: Its diastolic dysfunction is “corrected”.

Question: And the systolic dysfunction (type 1 diabetic mice [3]; [4])?
Answer: Its systolic dysfunction is “corrected”.

Question: What about the “upregulation of KLF5” value (type 1 diabetic mice [3]; type 1 diabetic mice) of the same molecule?
Answer: The value was “prevented”.
